Source: patent publication US20060069132A1, “Azolecarboxamide herbicides” (priority 2004, published 2006)
Where two headings read alike, the source gives them in different places.

Assays:
barnyardgrass [1] = assay: Test B pre-/postemergence herbicide test; type: in vivo, Echinochloa crus-galli
In short: (§1)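 Herbicidal effect was judged by eye on a 0–100 scale after plants stood 13 to 15 days in the greenhouse following pre- or postemergence treatment with surfactant-containing formulations.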

Surinam grass = assay: Test B pre-/postemergence herbicide test; type: in vivo, Urochloa decumbens
In short: (§2)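 Greenhouse pot assay with simultaneous preemergence (treated seed) and postemergence (2–18 cm seedlings) applications of surfactant-containing, non-phytotoxic solvent formulations. Response scored visually 13–15 days later on a 0–100 scale, 100 meaning complete control.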

cocklebur = assay: Test B pre-/postemergence herbicide test; type: in vivo, Xanthium strumarium
In short: as §1

corn = assay: Test B pre-/postemergence herbicide test; type: in vivo, Zea mays
In short: as §2

large crabgrass = assay: Test B pre-/postemergence herbicide test; type: in vivo, Digitaria sanguinalis
In short: as §2

giant foxtail = assay: Test B pre-/postemergence herbicide test; type: in vivo, Setaria faberi
In short: as §2

lambsquarters = assay: Test B pre-/postemergence herbicide test; type: in vivo, Chenopodium album
In short: as §2

morningglory = assay: Test B pre-/postemergence herbicide test; type: in vivo, Ipomoea coccinea; details: for pest or weed control at 500 g/ha: 500 g ai/ha
In short: as §1

pigweed = assay: Test B pre-/postemergence herbicide test; type: in vivo, Amaranthus retroflexus
In short: as §2

blackgrass = assay: Test B postemergence herbicide test; type: in vivo, Alopecurus myosuroides; details: Postemergence, scale 0 (no effect) to 100 (complete control); for Plant response rating, Blackgrass: 500 g ai/ha, visual rating after 13 to 15 days
In short: (§3)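 Treated at 2-leaf (paddy) or 1–4-leaf, 2–18 cm (postemergence); greenhouse 13–15 d; visual score vs control, 0 none to 100 complete control; dash = not tested.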

wheat = assay: Test B postemergence herbicide test; type: in vivo, Triticum aestivum; details: Postemergence, scale 0 (no effect) to 100 (complete control); for Plant response rating, Wheat: 500 g ai/ha, visual rating after 13 to 15 days
In short: (§4)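 Formulated test chemicals went onto postemergence plants measuring 2 to 18 cm, at one to four leaves. For the paddy assay, species had reached two leaves. Scoring took place 13–15 days later by eye, relative to untreated plants, using 0 for no effect up to 100 for full control.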

wild oat = assay: Test B postemergence herbicide test; type: in vivo, Avena fatua; details: Postemergence, scale 0 (no effect) to 100 (complete control); for Plant response rating, Oat, Wild: 500 g ai/ha, visual rating after 13 to 15 days
In short: as §4

rice = assay: Test B flooded paddy test; type: in vivo, Oryza sativa; details: 1000 g ai/ha, visual rating, scale 0 to 100 (0 no effect, 100 complete control), 13 to 15 days
In short: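 Greenhouse test; postemergence application to plants at 1–4 leaves (2–18 cm); paddy species at 2 leaves; evaluated visually vs controls at 13–15 days; scale 0–100 (100 = complete control).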

[2] = system: small flower umbrella sedge; assay: Test B flooded paddy test; type: in vivo, Cyperus difformis; details: 1000 g ai/ha, visual rating, scale 0 to 100 (0 no effect, 100 complete control), 13 to 15 days
In short: as §3

ducksalad = assay: Test B flooded paddy test; type: in vivo, Heteranthera limosa; details: 1000 g ai/ha, visual rating, scale 0 to 100 (0 no effect, 100 complete control), 13 to 15 days
In short: as §3

barnyardgrass [3] = assay: Test B flooded paddy test; type: in vivo, Echinochloa crus-galli; details: 1000 g ai/ha, visual rating, scale 0 to 100 (0 no effect, 100 complete control), 13 to 15 days
In short: as §3

[4] = Postemergence, 125 g ai/ha, scale 0 (no effect) to 100 (complete control)
[5] = Postemergence, 500 g ai/ha, visual rating after 13 to 15 days, scale 0 (no effect) to 100 (complete control)
[6] = Preemergence, 500 g ai/ha, scale 0 to 100
[7] = preemergence, 125 g ai/ha, 0 to 100 scale, 0 is no effect, 100 is complete control

`CCNC(=O)c1ccc(F)c(NC(=O)c2cc(C(C)(C)C)nn2CC)c1` [Compound 2, 3-(1,1-dimethylethyl)-1-ethyl-N-[5-[(ethylamino)carbonyl]-2-fluorophenyl]-1H-pyrazole-5-carboxamide] was tested, and the pest or weed control at 125 g/ha (barnyardgrass [1]; Echinochloa crus-galli, post-emergence, Postemergence, 125 g ai/ha, scale 0 (no effect) to 100 (complete control), read-out: Barnyardgrass plant response rating) was 30%, the pest or weed control at 500 g/ha (barnyardgrass [1]; Echinochloa crus-galli, post-emergence, Postemergence, 500 g ai/ha, visual rating after 13 to 15 days, scale 0 (no effect) to 100 (complete control), read-out: Plant response rating, Barnyardgrass) was 70% and the pest or weed control at 500 g/ha (barnyardgrass [1]; Echinochloa crus-galli, pre-emergence, Preemergence, 500 g ai/ha, scale 0 to 100, read-out: Barnyardgrass plant response rating) was 100%. It also gave a pest or weed control at 125 g/ha (Surinam grass; Urochloa decumbens, post-emergence, Postemergence, 125 g ai/ha, scale 0 (no effect) to 100 (complete control), read-out: Surinam Grass plant response rating) of 20%, a pest or weed control at 500 g/ha (Surinam grass; Urochloa decumbens, post-emergence, Postemergence, 500 g ai/ha, visual rating after 13 to 15 days, scale 0 (no effect) to 100 (complete control), read-out: Plant response rating, Surinam Grass) of 50% and a pest or weed control at 500 g/ha (Surinam grass; Urochloa decumbens, pre-emergence, Preemergence, 500 g ai/ha, scale 0 to 100, read-out: Surinam Grass plant response rating) of 100%. It also gave a pest or weed control at 125 g/ha (cocklebur; Xanthium strumarium, post-emergence, Postemergence, 125 g ai/ha, scale 0 (no effect) to 100 (complete control), read-out: Cocklebur plant response rating) of 50%, a pest or weed control at 500 g/ha (cocklebur; Xanthium strumarium, post-emergence, Postemergence, 500 g ai/ha, visual rating after 13 to 15 days, scale 0 (no effect) to 100 (complete control), read-out: Plant response rating, Cocklebur) of 80% and a pest or weed control at 500 g/ha (cocklebur; Xanthium strumarium, pre-emergence, Preemergence, 500 g ai/ha, scale 0 to 100, read-out: Cocklebur plant response rating) of 90%. For the same compound, the plant injury at 125 g/ha (corn; Zea mays, post-emergence, Postemergence, 125 g ai/ha, scale 0 (no effect) to 100 (complete control), read-out: Corn plant response rating) was 20%, the Corn plant response rating (crop injury, 0 = no effect, 100 = complete kill) at 500 g/ha (corn; Zea mays, post-emergence, Postemergence, 500 g ai/ha, visual rating after 13 to 15 days, scale 0 (no effect) to 100 (complete control)) was 20% and the plant injury at 500 g/ha (corn; Zea mays, pre-emergence, Preemergence, 500 g ai/ha, scale 0 to 100, read-out: Corn plant response rating) was 80%. It also gave a pest or weed control at 125 g/ha (large crabgrass; Digitaria sanguinalis, post-emergence, Postemergence, 125 g ai/ha, scale 0 (no effect) to 100 (complete control), read-out: Crabgrass, Large plant response rating) of 20%, a pest or weed control at 500 g/ha (large crabgrass; Digitaria sanguinalis, post-emergence, Postemergence, 500 g ai/ha, visual rating after 13 to 15 days, scale 0 (no effect) to 100 (complete control), read-out: Plant response rating, Crabgrass, Large) of 30% and a pest or weed control at 500 g/ha (large crabgrass; Digitaria sanguinalis, pre-emergence, Preemergence, 500 g ai/ha, scale 0 to 100, read-out: Crabgrass, Large plant response rating) of 100%. The pest or weed control at 125 g/ha (giant foxtail; Setaria faberi, post-emergence, 336 h, Postemergence, 125 g ai/ha, scale 0 (no effect) to 100 (complete control), read-out: Foxtail, Giant plant response rating) was 30%, the pest or weed control at 500 g/ha (giant foxtail; Setaria faberi, post-emergence, 336 h, Postemergence, 500 g ai/ha, visual rating after 13 to 15 days, scale 0 (no effect) to 100 (complete control), read-out: Plant response rating, Foxtail, Giant) was 30% and the pest or weed control at 500 g/ha (giant foxtail; Setaria faberi, pre-emergence, 336 h, Preemergence, 500 g ai/ha, scale 0 to 100, read-out: Foxtail, Giant plant response rating) was 100%. It also gave a pest or weed control at 125 g/ha (lambsquarters; Chenopodium album, post-emergence, 336 h, Postemergence, 125 g ai/ha, scale 0 (no effect) to 100 (complete control), read-out: Lambsquarters plant response rating) of 80%, a pest or weed control at 500 g/ha (lambsquarters; Chenopodium album, post-emergence, 336 h, Postemergence, 500 g ai/ha, visual rating after 13 to 15 days, scale 0 (no effect) to 100 (complete control), read-out: Plant response rating, Lambsquarters) of 90% and a pest or weed control at 500 g/ha (lambsquarters; Chenopodium album, pre-emergence, 336 h, Preemergence, 500 g ai/ha, scale 0 to 100, read-out: Lambsquarters plant response rating) of 100%. For the same compound, the pest or weed control at 125 g/ha (morningglory; Ipomoea, post-emergence, 336 h, Postemergence, 125 g ai/ha, scale 0 (no effect) to 100 (complete control), read-out: Morningglory plant response rating) was 30%, the pest or weed control at 500 g/ha (morningglory; Ipomoea, post-emergence, 336 h, Postemergence, visual rating after 13 to 15 days, scale 0 (no effect) to 100 (complete control), read-out: Plant response rating, Morningglory) was 70% and the pest or weed control at 500 g/ha (morningglory; Ipomoea, pre-emergence, 336 h, Preemergence, scale 0 to 100, read-out: Morningglory plant response rating) was 90%. It also gave a pest or weed control at 125 g/ha (pigweed; Amaranthus retroflexus, post-emergence, 336 h, Postemergence, 125 g ai/ha, scale 0 (no effect) to 100 (complete control), read-out: Pigweed plant response rating) of 60%, a pest or weed control at 500 g/ha (pigweed; Amaranthus retroflexus, post-emergence, 336 h, Postemergence, 500 g ai/ha, visual rating after 13 to 15 days, scale 0 (no effect) to 100 (complete control), read-out: Plant response rating, Pigweed) of 70% and a pest or weed control at 500 g/ha (pigweed; Amaranthus retroflexus, pre-emergence, 336 h, Preemergence, 500 g ai/ha, scale 0 to 100, read-out: Pigweed plant response rating) of 100%. The pest or weed control at 125 g/ha (blackgrass; Alopecurus myosuroides, post-emergence, 336 h, 125 g ai/ha, read-out: Blackgrass plant response rating) was 10%, the “Plant response rating, Blackgrass” value (blackgrass) was 30 and the “Plant response rating, Wheat” value (wheat) was 20. For the same compound, the plant injury at 125 g/ha (wheat; Triticum aestivum, post-emergence, 336 h, 125 g ai/ha, read-out: Wheat plant response rating) was 20%, the pest or weed control at 125 g/ha (wild oat; Avena fatua, post-emergence, 336 h, 125 g ai/ha, read-out: Oat, Wild plant response rating) was 20% and the “Plant response rating, Oat, Wild” value (wild oat) was 30. It also gave a plant injury at 1000 g/ha (rice; Oryza sativa, 336 h, read-out: Rice plant response rating) of 70%, a pest or weed control at 1000 g/ha ([2]; Cyperus difformis, 336 h, read-out: Sedge, Umbrella plant response rating) of 90% and a pest or weed control at 1000 g/ha (ducksalad; Heteranthera limosa, 336 h, read-out: Ducksalad plant response rating) of 90%. The pest or weed control at 1000 g/ha (barnyardgrass [3]; Echinochloa crus-galli, 336 h, read-out: Barnyardgrass plant response rating) was 90%.
`C=Cn1nc(C(C)(C)C)cc1C(=O)Nc1cccc(C(=O)NCC)c1` [Compound 33] was tested, and the “Barnyardgrass plant response rating” value (barnyardgrass [1]; [4]) was 20, the “Plant response rating, Barnyardgrass” value (barnyardgrass [1]; [5]) was 30 and the “Barnyardgrass plant response rating” value (barnyardgrass [1]; [6]) was 90. For the same compound, the “Plant response rating, Surinam Grass” value (Surinam grass; [5]) was 30, the “Surinam Grass plant response rating” value (Surinam grass; [6]) was 80 and the “Plant response rating, Surinam Grass” value (Surinam grass; [7]) was 30. For the same compound, the “Cocklebur plant response rating” value (cocklebur; [4]) was 80, the “Plant response rating, Cocklebur” value (cocklebur; [5]) was 100 and the “Cocklebur plant response rating” value (cocklebur; [6]) was 30. The “Corn plant response rating” value (corn; [6]) was 30, the “Crabgrass, Large plant response rating” value (large crabgrass; [4]) was 20 and the “Plant response rating, Crabgrass, Large” value (large crabgrass; [5]) was 30. For the same compound, the “Crabgrass, Large plant response rating” value (large crabgrass; [6]) was 100, the “Foxtail, Giant plant response rating” value (giant foxtail; [4]) was 30 and the “Plant response rating, Foxtail, Giant” value (giant foxtail; [5]) was 30. For the same compound, the “Foxtail, Giant plant response rating” value (giant foxtail; [6]) was 100, the “Plant response rating, Foxtail, Giant” value (giant foxtail; [7]) was 80 and the “Lambsquarters plant response rating” value (lambsquarters; [4]) was 90. The “Plant response rating, Lambsquarters” value (lambsquarters; [5]) was 90, the “Lambsquarters plant response rating” value (lambsquarters; [6]) was 100 and the “Plant response rating, Lambsquarters” value (lambsquarters; [7]) was 100. The “Plant response rating, Morningglory” value (morningglory; [7]) was 10, the “Plant response rating, Pigweed” value (pigweed; [5]) was 90 and the “Pigweed plant response rating” value (pigweed; [6]) was 100. For the same compound, the “Plant response rating, Pigweed” value (pigweed; [7]) was 100, the “Blackgrass plant response rating” value (blackgrass; 125 g ai/ha) was 20 and the “Plant response rating, Blackgrass” value (blackgrass) was 20. The “Plant response rating, Wheat” value (wheat) was 30, the “Oat, Wild plant response rating” value (wild oat; 125 g ai/ha) was 10 and the “Plant response rating, Oat, Wild” value (wild oat) was 10. The “Rice plant response rating” value (rice) was 60, the “Sedge, Umbrella plant response rating” value [2] was 90 and the “Ducksalad plant response rating” value (ducksalad) was 90. For the same compound, the “Barnyardgrass plant response rating” value (barnyardgrass [3]) was 90.
